In ChEMBL document CHEMBL4004798, “Phytochemical Investigations of Three Rhodocodon (Hyacinthaceae Sensu APG II) Species” (2017):

How the values were obtained:
[1] = Inhibition of COX2 expression in HCA-7 cells at 1 mM after 48 hrs by Western blot method relative to control; format: functional; details: Homo sapiens, HCA-7, 48 h
[2] = target: T1, Prostaglandin G/H synthase 2 (Homo sapiens) (UniProt P35354); assay: Inhibition of COX2 in HCA-7 cells assessed as reduction in PGE2 release at 12 uM after 48 hrs by ELISA relative to control; format: cell-based
T1 sequence (whole entry): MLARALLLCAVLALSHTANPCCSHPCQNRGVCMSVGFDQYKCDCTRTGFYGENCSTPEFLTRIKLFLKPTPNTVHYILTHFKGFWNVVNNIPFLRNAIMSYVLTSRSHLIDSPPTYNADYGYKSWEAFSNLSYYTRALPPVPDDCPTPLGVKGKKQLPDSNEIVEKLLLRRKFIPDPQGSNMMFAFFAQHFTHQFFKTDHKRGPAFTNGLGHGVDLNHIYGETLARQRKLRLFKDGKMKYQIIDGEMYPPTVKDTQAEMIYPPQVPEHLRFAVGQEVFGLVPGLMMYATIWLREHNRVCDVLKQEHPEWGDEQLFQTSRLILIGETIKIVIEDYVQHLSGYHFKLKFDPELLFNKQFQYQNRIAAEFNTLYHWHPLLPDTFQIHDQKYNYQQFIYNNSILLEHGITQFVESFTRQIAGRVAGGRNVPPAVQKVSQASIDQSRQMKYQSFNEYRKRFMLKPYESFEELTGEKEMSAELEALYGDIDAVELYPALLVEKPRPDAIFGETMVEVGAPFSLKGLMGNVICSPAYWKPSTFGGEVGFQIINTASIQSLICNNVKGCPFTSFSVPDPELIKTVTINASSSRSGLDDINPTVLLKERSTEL

[3] = Inhibition of COX2 expression in HCA-7 cells at 12 uM after 48 hrs by Western blot method relative to control; format: functional; details: Homo sapiens, HCA-7, 48 h

SMILES | inhibition at 1000 µM [1] | inhibition [2] | inhibition at 12 µM [3]
CC(=O)Oc1ccccc1C(=O)O [ASPIRIN] | 12% | – | –
COc1ccc(/C=C2\COc3cc(O)c(O)c(O)c3C2=O)cc1O | – | 20% | 10%
COc1ccc(/C=C2\COc3cc(O)cc(O)c3C2=O)cc1OC(C)=O | – | 11% | 8%
